Source: patent publication US20080045494A1, “Pyridine Analogues VI” (ASTRAZENECA AB, priority 2006, published 2008)

Molecular target: T1, P2Y12 receptor (Homo sapiens, UniProt Q9H244)
T1 construct: expressed in transfected cells; host or cells: CHO cells (membranes)
Experiment: Functional inhibition of 2-Me-S-ADP induced P2Y12 signalling (35S-GTPγS, membranes from P2Y12 transfected CHO-cells)
Format: biochemical
Details: EC80 concentration of agonist 2-methyl-thio-adenosine diphosphate; 30° C., 45 min
Protocol: Functional inhibition of the P2Y12 receptor can be measured by in vitro assays using cell membranes from P2Y12 transfected CHO-cells, the methodology is indicated below.
Functional inhibition of 2-Me—S-ADP induced P2Y12 signalling: 5 μg of membranes were diluted in 200 μl of 200 mM NaCl, 1 mM MgCl2, 50 mM HEPES (pH 7.4), 0.01% BSA, 30 μg/ml saponin and 10 μM GDP. To this was added an EC80 concentration of agonist (2-methyl-thio-adenosine diphosphate), the required concentration of test compound and 0.1 μCi ^35S-GTPγS. The reaction was allowed to proceed at 30° C. for 45 min. Samples were then transferred on to GF/B filters using a cell harvester and washed with wash buffer (50 mM Tris (pH 7.4), 5 mM MgCl2, 50 mM NaCl). Filters were then covered with scintillant and counted for the amount of ^35S-GTPγS retained by the filter. Maximum activity was that determined in the presence of the agonist and minimum activity in the absence of the agonist following subtraction of the value determined for non-specific activity. The effect of compounds at various concentrations was plotted according to the equation: […]
y=A+((B−A)/(1+((C/x)̂D)))
A is the bottom plateau of the curve i.e. the final minimum y value
B is the top of the plateau of the curve i.e. the final maximum y value
C is the x value at the middle of the curve. This represents the log EC50 value when A+B=100 […]

T1 sequence (Q9H244 whole entry): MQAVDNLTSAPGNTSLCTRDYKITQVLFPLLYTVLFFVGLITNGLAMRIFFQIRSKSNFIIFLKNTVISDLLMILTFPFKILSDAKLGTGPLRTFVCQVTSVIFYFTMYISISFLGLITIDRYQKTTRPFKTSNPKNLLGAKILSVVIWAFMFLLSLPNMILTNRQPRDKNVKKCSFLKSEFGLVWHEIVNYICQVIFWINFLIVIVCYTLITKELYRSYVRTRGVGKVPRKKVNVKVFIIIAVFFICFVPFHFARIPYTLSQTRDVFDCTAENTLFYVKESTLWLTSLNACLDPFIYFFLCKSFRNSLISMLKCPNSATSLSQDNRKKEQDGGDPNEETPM

## CCOC(=O)c1cc(C#N)c(NCC(=O)NS(=O)(=O)CCc2ccccc2)nc1C(F)(F)F [Example 6, Ethyl 5-cyano-6-[(2-oxo-2-{[(2-phenylethyl)sulfonyl]amino}ethyl)amino]-2-(trifluoromethyl)nicotinate]
  IC50: 240 nM

## Ethyl 6-{[3-({[(5-chloro-2-thienyl)sulfonyl]amino}carbonyl)cyclopentyl]amino}-5-cyano-1-(trifluoromethyl)nicotinate [Example 3]
  IC50: 810 nM
